Data set [1] in a line: Chemical stability in aqueous 1 M HCl or 1 M NaOH and on shelf storage. Conditions: aqueous 1 M hydrochloric acid or aqueous 1 M sodium hydroxide, room temperature, 1 day. It is filed as physicochemical.
Data set [2] in a line: Kinetic solubility in phosphate-buffered saline pH 7.4. The conditions noted are these: 25 °C, pH 7.4, aqueous buffer, kinetic from dmso stock.
For data set [3] the following is noted: human liver microsomes.
The nature of data set [4]: Experimental pKa. The conditions noted are these: amine hydrochlorides. It is filed as physicochemical.

Values after ≈ are worked out from the molar mass of the structure shown.

As usually defined, the kinetic solubility is solubility judged after dilution from a stock solution rather than from solid.

Turning to `FC(F)(F)C1(c2cccnc2)CCC1` [12a], in data set [1], the “decomposition on treatment with acid or base” value is “did not lead to any decomposition”.

Compound `CN(Cc1ccc(C(C)(C)C)cc1)Cc1cccc2ccccc12` [Butenafine] registered a kinetic solubility at 2 h in data set [2] of 10 µM (≈ 3.17 µg/mL). Also, the CLint in data set [3] amounted to 30 mg min^–1 μL^–1.

In the case of `CCc1cc(C)cc(CC)c1-c1c(OC(=O)C(C)(C)C)n2n(c1=O)CCOCC2` [Pinoxaden], the solubility (kinetic) at 2 h in data set [2] turned out to be 358 µM (≈ 143 µg/mL).

`CC(C)(C)C(=O)NNCc1ccccc1` [Pivhydrazine] showed a kinetic solubility at 2 h in data set [2] of no less than 400 µM.

As to `CC(C)N(Cc1ccccc1)C(=O)C(C)(C)C` [Tebutam], the kinetic solubility at 2 h in data set [2] amounted to 324 µM (≈ 75.6 µg/mL). Besides, the CLint in data set [3] amounted to 57 mg min^–1 μL^–1.

With `CC(C)(C)N.Cl` [tert-butyl amine hydrochloride], the “pKa (exp.)” value in data set [4] is 10.69.
